Measured values: ChEMBL document CHEMBL4627344, “Synthesis, biological evaluation and virtual screening of some acridone derivatives as potential anticancer agents” (2020)

What was measured:
Assay type in all cases: functional
PC-3 = assay: Antiproliferative activity against human PC3 cells assessed as inhibition of cell growth measured after 48 hrs by SRB assay; details: PC-3, 48 h
M14 [1] = assay: Antiproliferative activity against human M14 cells assessed as inhibition of cell growth measured after 48 hrs by SRB assay; details: M14, 48 h
A549 [2] = assay: Antiproliferative activity against human A549 cells assessed as inhibition of cell growth at 10 uM measured after 48 hrs by SRB assay relative to control; details: A549, 48 h, read-out: GI
OVCAR-8 = assay: Antiproliferative activity against human OVCAR8 cells assessed as inhibition of cell growth at 10 uM measured after 48 hrs by SRB assay relative to control; details: OVCAR-8, 48 h, read-out: GI
NCI-H322M = assay: Antiproliferative activity against human NCI-H322M cells assessed as inhibition of cell growth measured after 48 hrs by SRB assay
MOLT-4 [3] = assay: Antiproliferative activity against human MOLT4 cells assessed as inhibition of cell growth measured after 48 hrs by SRB assay; details: MOLT-4, 48 h
NCI-H460 [4] = assay: Antiproliferative activity against human NCI-H460 cells assessed as inhibition of cell growth at 10 uM measured after 48 hrs by SRB assay relative to control; details: NCI-H460, 48 h, read-out: GI
DU-145 [5] = assay: Antiproliferative activity against human DU145 cells assessed as inhibition of cell growth at 10 uM measured after 48 hrs by SRB assay relative to control; details: DU-145, 48 h, read-out: GI
HL-60(TB) = assay: Antiproliferative activity against human HL-60(TB) cells assessed as inhibition of cell growth at 10 uM measured after 48 hrs by SRB assay relative to control; details: HL-60, 48 h, read-out: GI
A498 = assay: Antiproliferative activity against human A498 cells assessed as inhibition of cell growth measured after 48 hrs by SRB assay; details: A498, 48 h
SN12C = assay: Antiproliferative activity against human SN12C cells assessed as inhibition of cell growth at 10 uM measured after 48 hrs by SRB assay relative to control; details: read-out: GI
HCC 2998 = assay: Antiproliferative activity against human HCC2998 cells assessed as inhibition of cell growth measured after 48 hrs by SRB assay; details: HCC 2998, 48 h
NCI-H460 [6] = assay: Antiproliferative activity against human NCI-H460 cells assessed as inhibition of cell growth measured after 48 hrs by SRB assay; details: NCI-H460, 48 h
SW-620 = assay: Antiproliferative activity against human SW620 cells assessed as inhibition of cell growth measured after 48 hrs by SRB assay; details: SW-620, 48 h
DU-145 [7] = assay: Antiproliferative activity against human DU145 cells assessed as inhibition of cell growth measured after 48 hrs by SRB assay; details: DU-145, 48 h
M14 [8] = assay: Antiproliferative activity against human M14 cells assessed as inhibition of cell growth at 10 uM measured after 48 hrs by SRB assay relative to control; details: M14, 48 h, read-out: GI
786-0 = assay: Antiproliferative activity against human 786-0 cells assessed as inhibition of cell growth measured after 48 hrs by SRB assay; details: 786-0, 48 h
NCI/ADR-RES = assay: Antiproliferative activity against human NCI/ADR-RES cells assessed as inhibition of cell growth measured after 48 hrs by SRB assay
IGROV-1 = assay: Antiproliferative activity against human IGROV1 cells assessed as inhibition of cell growth measured after 48 hrs by SRB assay; details: IGROV-1, 48 h
SF-539 = assay: Antiproliferative activity against human SF539 cells assessed as inhibition of cell growth at 10 uM measured after 48 hrs by SRB assay relative to control; details: SF-539, 48 h, read-out: GI
MDA-MB-468 = assay: Antiproliferative activity against human MDA-MB-468 cells assessed as inhibition of cell growth measured after 48 hrs by SRB assay; details: MDA-MB-468, 48 h
SK-MEL-2 = assay: Antiproliferative activity against human SK-MEL-2 cells assessed as inhibition of cell growth measured after 48 hrs by SRB assay; details: SK-MEL-2, 48 h
OVCAR-5 = assay: Antiproliferative activity against human OVCAR5 cells assessed as inhibition of cell growth measured after 48 hrs by SRB assay; details: OVCAR-5, 48 h
MDA-MB-231 = assay: Antiproliferative activity against human MDA-MB-231 cells assessed as inhibition of cell growth measured after 48 hrs by SRB assay; details: MDA-MB-231, 48 h
OVCAR-3 = assay: Antiproliferative activity against human OVCAR3 cells assessed as inhibition of cell growth at 10 uM measured after 48 hrs by SRB assay relative to control; details: OVCAR-3, 48 h, read-out: GI
SK-MEL-5 = assay: Antiproliferative activity against human SK-MEL-5 cells assessed as inhibition of cell growth at 10 uM measured after 48 hrs by SRB assay relative to control; details: SK-MEL-5, 48 h, read-out: GI
HT-29 = assay: Antiproliferative activity against human HT-29 cells assessed as inhibition of cell growth at 10 uM measured after 48 hrs by SRB assay relative to control; details: HT-29, 48 h, read-out: GI
MOLT-4 [9] = assay: Antiproliferative activity against human MOLT4 cells assessed as inhibition of cell growth at 10 uM measured after 48 hrs by SRB assay relative to control; details: MOLT-4, 48 h, read-out: GI
K562 = assay: Antiproliferative activity against human K562 cells assessed as inhibition of cell growth at 10 uM measured after 48 hrs by SRB assay relative to control; details: K562, 48 h, read-out: GI
MDA-MB-435 = assay: Antiproliferative activity against human MDA-MB-435 cells assessed as inhibition of cell growth measured after 48 hrs by SRB assay; details: MDA-MB-435, 48 h
SK-OV-3 = assay: Antiproliferative activity against human SKOV3 cells assessed as inhibition of cell growth measured after 48 hrs by SRB assay; details: SK-OV-3, 48 h
NCI-H522 = assay: Antiproliferative activity against human NCI-H522 cells assessed as inhibition of cell growth at 10 uM measured after 48 hrs by SRB assay relative to control; details: NCI-H522, 48 h, read-out: GI
NCI-H226 = assay: Antiproliferative activity against human NCI-H226 cells assessed as inhibition of cell growth at 10 uM measured after 48 hrs by SRB assay relative to control; details: NCI-H226, 48 h, read-out: GI
A549 [10] = assay: Antiproliferative activity against human A549 cells assessed as inhibition of cell growth measured after 48 hrs by SRB assay; details: A549, 48 h
SR = assay: Antiproliferative activity against human SR cells assessed as inhibition of cell growth at 10 uM measured after 48 hrs by SRB assay relative to control; details: read-out: GI

Compound	GI50 (PC-3) [nM]	GI50 (M14 [1]) [nM]	inhibition of growth at 10 µM (A549 [2]) [%]	inhibition of growth at 10 µM (OVCAR-8) [%]	GI50 (NCI-H322M) [nM]	GI50 (MOLT-4 [3]) [nM]	inhibition of growth at 10 µM (NCI-H460 [4]) [%]	inhibition of growth at 10 µM (DU-145 [5]) [%]	inhibition of growth at 10 µM (HL-60(TB)) [%]	GI50 (A498) [nM]	inhibition of growth at 10 µM (SN12C) [%]	GI50 (HCC 2998) [nM]	GI50 (NCI-H460 [6]) [nM]	GI50 (SW-620) [nM]	GI50 (DU-145 [7]) [nM]	inhibition of growth at 10 µM (M14 [8]) [%]	GI50 (786-0) [nM]	GI50 (NCI/ADR-RES) [nM]	GI50 (IGROV-1) [nM]	inhibition of growth at 10 µM (SF-539) [%]	other results
O=C1CC(c2ccccc2)Cc2nc3ccc(Br)cc3cc21 (stereo not given)	254	50.5	76.2	75.9	623	53.7	95.4	103	128	74.5	67.8	2580	344	360	274	89.8	784	66.9	423	98.4	GI50 (MDA-MB-468): 2840 nM; GI50 (SK-MEL-2): 238 nM; GI50 (OVCAR-5): 825 nM; GI50 (MDA-MB-231): 598 nM; inhibition of growth at 10 µM (OVCAR-3): 128%; inhibition of growth at 10 µM (SK-MEL-5): 97.9%; inhibition of growth at 10 µM (HT-29): 97.8%; inhibition of growth at 10 µM (MOLT-4 [9]): 89.5%; inhibition of growth at 10 µM (K562): 93.9%; GI50 (MDA-MB-435): 27.1 nM; GI50 (SK-OV-3): 611 nM; inhibition of growth at 10 µM (NCI-H522): 104%; inhibition of growth at 10 µM (NCI-H226): 75.9%; GI50 (A549 [10]): 419 nM; inhibition of growth at 10 µM (SR): 86.9%
O=C1CC(c2ccccc2)Cc2nc3ccc(Cl)cc3cc21 (stereo not given)	280	38	76.7	77.6	720	67.5	96.7	99.8	121	87	71.8	2890	345	370	334	91	838	64.4	375	112	GI50 (MDA-MB-468): 2470 nM; GI50 (SK-MEL-2): 320 nM; GI50 (OVCAR-5): 1020 nM; GI50 (MDA-MB-231): 617 nM; inhibition of growth at 10 µM (OVCAR-3): 129%; inhibition of growth at 10 µM (SK-MEL-5): 114%; inhibition of growth at 10 µM (HT-29): 95.6%; inhibition of growth at 10 µM (MOLT-4 [9]): 93.2%; inhibition of growth at 10 µM (K562): 79.3%; GI50 (MDA-MB-435): 26.6 nM; GI50 (SK-OV-3): 845 nM; inhibition of growth at 10 µM (NCI-H522): 97%; inhibition of growth at 10 µM (NCI-H226): 79.2%; GI50 (A549 [10]): 420 nM; inhibition of growth at 10 µM (SR): 87%
